Key:
Assay in all cases: relative viability (nuclei count vs DMSO), 5 days (fraction); higher = more cells survive
[1] = compound: C1CNCCC1C2=CC(=NN2)C3=CC=NC=C3 + CC(=O)Nc1cccc(-n2c(=O)n(C3CC3)c(=O)c3c(Nc4ccc(I)cc4F)n(C)c(=O)c(C)c32)c1 [Trametinib] (partner 0.02 µM)
How it was run: (§1)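 After 5 days of treatment, lung cancer cells in 1536-well plates were fixed and stained in a single step (final 0.05% Triton X-100, 1% formaldehyde, 1 ug/ml Hoechst) and their nuclei counted on 4× images. Treatment had been applied by pin tool the day after seeding as one drug alone or as a fixed anchor-drug dose with five library-drug doses (not always all listed) in √10 steps. Relative viability is the nuclei count of treated wells divided by that of vehicle wells, and values are medians of duplicate plates.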

[2] = compound: C1CNCCC1C2=CC(=NN2)C3=CC=NC=C3 + Nc1nc2[nH]cc(CCc3ccc(C(=O)N[C@@H](CCC(=O)O)C(=O)O)cc3)c2c(=O)[nH]1 [Pemetrexed] (partner 0.2 µM)
How it was run: as §1

[3] = compound: C[C@@H](N)c1ccc(C(=O)Nc2ccnc3[nH]ccc23)cc1 + CCNC(=O)c1noc(-c2cc(C(C)C)c(O)cc2O)c1-c1ccc(CN2CCOCC2)cc1 [Luminespib] (partner 0.01 µM)
How it was run: as §1

[4] = compound: C[C@@H](N)c1ccc(C(=O)Nc2ccnc3[nH]ccc23)cc1 + NC(=O)Nc1cc(-c2cccc(F)c2)sc1C(=O)N[C@H]1CCCNC1 [AZD7762] (partner 0.2 µM)
How it was run: as §1

Cell Line	relative viability ([1]; first compound 0.08 µM)	relative viability ([1]; first compound 2.53 µM)	relative viability ([1]; first compound 8 µM)	relative viability ([2]; first compound 0.08 µM)	relative viability ([2]; first compound 2.53 µM)	relative viability ([2]; first compound 8 µM)	relative viability ([3]; first compound 0.04 µM)	relative viability ([3]; first compound 0.1265 µM)	relative viability ([3]; first compound 0.4 µM)	relative viability ([3]; first compound 1.265 µM)	relative viability ([3]; first compound 4 µM)	relative viability ([4]; first compound 0.04 µM)	relative viability ([4]; first compound 0.1265 µM)	relative viability ([4]; first compound 0.4 µM)	relative viability ([4]; first compound 1.265 µM)	relative viability ([4]; first compound 4 µM)	relative viability ([1]; first compound 0.8 µM)	relative viability ([2]; first compound 0.8 µM)
SW 900	0.751	0.901	0.836	0.497	0.5	0.454	0.185	0.214	0.152	0.172	0.152	0.772	0.698	0.661	0.777	0.878	–	–
NCI-H1944	0.333	0.389	0.411	0.564	0.67	0.557	0.857	0.722	0.753	0.746	0.6	0.479	0.542	0.611	0.798	0.606	0.376	0.595
NCI-H727	0.386	0.421	0.364	–	–	–	0.341	0.516	0.425	0.285	0.363	1.04	0.801	0.788	0.996	0.833	0.366	–
NCI-H1650	0.506	0.569	0.578	0.374	0.331	0.381	0.2	0.191	0.177	0.17	0.195	–	–	–	–	–	0.558	0.422
HCC-827	0.524	0.599	0.601	0.222	0.132	0.262	0.786	0.686	0.698	0.848	0.608	–	0.286	0.247	0.329	0.275	0.5	0.238
HCC-366	0.292	0.393	0.337	0.212	0.146	0.173	–	–	–	–	–	0.174	0.32	0.434	0.588	0.359	0.428	0.193
HARA	0.616	0.762	1.09	0.238	0.228	0.159	–	0.738	0.675	–	0.608	0.275	0.266	0.3	0.965	0.311	0.709	0.236
NCI-H322M	0.511	0.516	0.575	0.636	0.641	0.667	1.08	1.1	1.03	–	0.742	0.544	0.66	0.647	0.837	0.777	0.533	0.589
LXF-289	0.658	0.653	0.706	0.936	0.856	0.814	0.711	0.616	0.785	0.691	0.534	1.07	1.09	1.23	1.26	0.934	0.768	0.967
PC-3 [JPC-3]	0.637	0.734	0.684	0.966	1.15	0.998	0.714	0.68	0.73	0.846	0.607	1.09	0.87	0.925	1.05	0.912	0.718	1.22
CAL-12T	0.351	0.363	0.419	1.22	1.21	1.09	0.297	0.421	0.322	0.432	0.22	0.625	0.682	0.606	0.784	0.803	0.363	1.32
COR-L 105	0.42	0.427	0.47	1.19	1.12	1.06	0.733	0.635	0.596	0.559	0.346	–	–	–	–	–	0.501	1.19
NCI-H2347	0.264	0.326	0.262	0.441	0.422	0.422	0.469	0.308	0.784	–	0.795	0.825	0.603	0.973	0.878	1.01	0.266	0.409
NCI-H2126	0.582	0.543	0.564	0.643	0.694	0.728	1	0.951	1.01	1.01	0.806	1.01	1.04	1.17	0.982	1.12	0.564	0.625
NCI-H838	0.518	0.589	0.512	0.24	0.248	0.284	0.355	0.315	0.32	0.282	0.222	0.848	0.957	0.936	0.852	0.752	0.494	0.259
NCI-H2342	0.716	0.794	1.04	0.725	0.759	0.787	0.858	0.797	0.719	0.802	0.808	0.508	0.643	0.534	0.611	0.584	0.798	0.711
NCI-H1623	–	–	–	–	–	–	0.657	0.494	0.563	0.491	0.591	–	–	–	–	–	–	–
SK-LU-1	0.449	0.541	0.528	0.955	1.04	0.976	0.229	0.208	0.187	0.176	0.163	–	–	–	–	–	0.445	1.04
NCI-H2085	0.623	0.52	0.71	1.1	0.96	0.969	0.453	0.41	0.405	0.386	0.38	0.947	0.914	0.96	1.13	1.09	–	–
NCI-H460	0.0741	0.158	0.188	0.0816	0.0652	0.0683	0.04	0.0445	0.0267	0.0276	0.0227	0.66	0.656	0.844	0.873	0.913	0.122	0.066
